Positions count from the first letter of the chain named. Read-outs that look alike come from different tables or passages of the source.
Experiments:
E51D YPDC = target: T1, E51D YPDC (Saccharomyces cerevisiae, UniProt P06169, E51D); experiment: CD titration with propionylphosphinate; format: binding
T1 sequence (P06169 1-563 E51D): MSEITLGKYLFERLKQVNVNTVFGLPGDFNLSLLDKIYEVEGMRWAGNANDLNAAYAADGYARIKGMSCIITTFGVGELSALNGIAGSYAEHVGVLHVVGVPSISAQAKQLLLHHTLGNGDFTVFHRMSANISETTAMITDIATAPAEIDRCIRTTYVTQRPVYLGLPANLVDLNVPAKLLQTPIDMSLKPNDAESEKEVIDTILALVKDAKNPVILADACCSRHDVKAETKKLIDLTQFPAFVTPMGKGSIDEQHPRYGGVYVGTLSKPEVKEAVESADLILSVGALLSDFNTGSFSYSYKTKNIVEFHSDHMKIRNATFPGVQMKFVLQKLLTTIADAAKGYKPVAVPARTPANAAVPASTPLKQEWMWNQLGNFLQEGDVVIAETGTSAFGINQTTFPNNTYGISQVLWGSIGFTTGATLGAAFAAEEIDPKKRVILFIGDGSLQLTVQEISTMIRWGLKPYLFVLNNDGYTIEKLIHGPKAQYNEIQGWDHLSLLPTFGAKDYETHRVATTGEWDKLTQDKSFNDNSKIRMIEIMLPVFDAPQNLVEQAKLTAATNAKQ

C221E/C222A YPDC = target: T2, C221E/C222A YPDC (Saccharomyces cerevisiae, UniProt P06169, C221E/C222A); experiment: CD titration with propionylphosphinate; format: binding; conditions: IP form of PPThDP
T2 sequence (P06169 1-563 C221E/C222A): T1 sequence (P06169 1-563 E51D) with D51E, C221E, C222A

YPDC = target: T3, YPDC (Saccharomyces cerevisiae, UniProt P06169); experiment: CD titration with propionylphosphinate; format: binding; conditions: for Kd: pH 6.0, 25 °C
T3 sequence (P06169 1-563): T1 sequence (P06169 1-563 E51D) with D51E

E91D YPDC = target: T4, E91D YPDC (Saccharomyces cerevisiae, UniProt P06169, E91D); experiment: CD titration with propionylphosphinate; format: binding; conditions: for Kd: pH 6.0, 25 °C
T4 sequence (P06169 1-563 E91D): T1 sequence (P06169 1-563 E51D) with D51E, E91D

D28A YPDC = target: T5, D28A YPDC (Saccharomyces cerevisiae, UniProt P06169, D28A); experiment: CD titration with propionylphosphinate; format: binding; conditions: pH 6.0, 25 °C
T5 sequence (P06169 1-563 D28A): T1 sequence (P06169 1-563 E51D) with D28A, D51E

E477Q YPDC = target: T6, E477Q YPDC (Saccharomyces cerevisiae, UniProt P06169, E477Q); experiment: CD titration with propionylphosphinate; format: binding; conditions: pH 6.0, 25 °C
T6 sequence (P06169 1-563 E477Q): T1 sequence (P06169 1-563 E51D) with D51E, E477Q

[1] = test system: yeast pyruvate decarboxylase (YPDC); conditions: reaction with pyruvate; cited from earlier work
[2] = test system: yeast pyruvate decarboxylase (YPDC); format: biochemical, Saccharomyces cerevisiae; conditions: 40 mM pyruvate in syringe, 10 °C, pH 6.0
[3] = test system: yeast pyruvate decarboxylase (YPDC); experiment: YPDC assay coupled to alcohol dehydrogenase/NADH; format: biochemical, Saccharomyces cerevisiae; conditions: pyruvate as substrate, pH 6.0, 30 °C
[4] = read-out: Kd^app (IP), 1′,4′-iminopyrimidine tautomer of PPThDP, CD band at 297 nm
[5] = read-out: Kd^app (MC), Michaelis complex, negative CD band at 330 nm

CCC(=O)[PH](=O)[O-].[Na+] [PP, sodium propionylphosphinate]
CD max (IP) (E51D YPDC; IP form of PPThDP): 21.6 ± 0.54 (IP) mdeg | Kd (E51D YPDC; read-out: Kd^app (IP), 1′,4′-iminopyrimidine tautomer of PPThDP, CD band at 297 nm, pH 6.0, 25 °C): 13.6 ± 0.35 mM | CD max (IP) (C221E/C222A YPDC): 4.7 ± 0.77 (IP) mdeg | CD max (IP) (YPDC; IP form of PPThDP, 297 nm): 15.8 ± 0.79 (IP) mdeg | Kd (YPDC; [4]): 7.82 ± 0.55 mM | Kd (YPDC; [5]): 9.1 ± 0.45 mM | CD max (IP) (E91D YPDC; IP form of PPThDP, 297 nm): 7.6 ± 0.63 (IP) mdeg | CD max (MC) (E91D YPDC; Michaelis complex, 330 nm): −2.85 ± 0.18 (MC) mdeg | Kd (E91D YPDC; [4]): 7.02 ± 1.34 mM | Kd (E91D YPDC; [5]): 8.02 ± 0.92 mM | Kd^app (D28A YPDC): Not detected | Kd^app (E477Q YPDC): Not detected

B1: YPDC: wild type yeast pyruvate decarboxylase (EC 4.1.1.1) isolated from Saccharomyces cerevisiae (protein, UniProt P06169 2-563, looked up)
Pyruvate decarboxylase …: SEITLGKYLFERLKQVNVNTVFGLPGDFNLSLLDKIYEVEGMRWAGNANELNAAYAADGYARIKGMSCIITTFGVGELSALNGIAGSYAEHVGVLHVVGVPSISAQAKQLLLHHTLGNGDFTVFHRMSANISETTAMITDIATAPAEIDRCIRTTYVTQRPVYLGLPANLVDLNVPAKLLQTPIDMSLKPNDAESEKEVIDTILALVKDAKNPVILADACCSRHDVKAETKKLIDLTQFPAFVTPMGKGSIDEQHPRYGGVYVGTLSKPEVKEAVESADLILSVGALLSDFNTGSFSYSYKTKNIVEFHSDHMKIRNATFPGVQMKFVLQKLLTTIADAAKGYKPVAVPARTPANAAVPASTPLKQEWMWNQLGNFLQEGDVVIAETGTSAFGINQTTFPNNTYGISQVLWGSIGFTTGATLGAAFAAEEIDPKKRVILFIGDGSLQLTVQEISTMIRWGLKPYLFVLNNDGYTIEKLIHGPKAQYNEIQGWDHLSLLPTFGAKDYETHRVATTGEWDKLTQDKSFNDNSKIRMIEIMLPVFDAPQNLVEQAKLTAATNAKQ
k′2 (net forward rate constant of LThDP formation) [1]: 294 ± 20 s⁻¹ | rate constant of accumulation of IP tautomer (LThDP), CD signal at 313 nm [2]: 312 s⁻¹ | kcat / subunit ([3]; per subunit): 60 s⁻¹ | S0.5 [3]: 1.1 ± 0.2 mM

From publication PMC3295232 (Journal of the American Chemical Society, 2012)
